In ChEMBL document CHEMBL2390840, “An analysis of the synthetic tryptamines AMT and 5-MeO-DALT: emerging 'Novel Psychoactive Drugs'” (Bioorg Med Chem Lett, 2013):

Columns and labels:
[1] = target: 5-hydroxytryptamine receptor 2B (Homo sapiens, UniProt P41595); assay: Agonist activity at human 5-HT2B receptor expressed in HEK293 cells assessed as increase in calcium mobilization by FLIPR assay; assay type: functional, cell-based
[2] = target: Beta-2 adrenergic receptor (Homo sapiens, UniProt P07550); assay: Displacement of [125I]Iodopindolol from human recombinant adrenergic beta2 receptor expressed in HEK293 cells coexpressing FLP-IN after 1 to […] by scintillation counting analysis; assay type: cell-based
[3] = target: 5-hydroxytryptamine receptor 7 (Homo sapiens, UniProt P34969); assay: Displacement of [3H]LSD from human recombinant 5-HT7 receptor expressed in HEK293 cells after 1 to […] by scintillation counting analysis; assay type: cell-based
Chain of 5-hydroxytryptamine receptor 7 (P34969 whole entry): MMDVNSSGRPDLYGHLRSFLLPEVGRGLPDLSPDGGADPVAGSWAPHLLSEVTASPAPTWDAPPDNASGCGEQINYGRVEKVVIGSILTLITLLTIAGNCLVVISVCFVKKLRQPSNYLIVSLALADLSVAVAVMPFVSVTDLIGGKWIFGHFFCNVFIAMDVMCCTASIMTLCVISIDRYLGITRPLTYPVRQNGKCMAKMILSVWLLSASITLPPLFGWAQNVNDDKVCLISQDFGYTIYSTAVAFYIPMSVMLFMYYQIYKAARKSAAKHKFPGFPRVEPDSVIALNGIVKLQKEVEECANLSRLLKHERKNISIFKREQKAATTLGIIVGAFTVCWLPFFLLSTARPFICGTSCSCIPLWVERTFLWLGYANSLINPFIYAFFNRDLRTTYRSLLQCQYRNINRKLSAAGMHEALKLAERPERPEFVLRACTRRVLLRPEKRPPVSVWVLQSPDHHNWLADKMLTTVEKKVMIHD

[4] = target: Neuronal acetylcholine receptor; alpha4/beta2 (Homo sapiens, UniProt P17787+P43681); assay: Displacement of [3H]Epibatidine from alpha4beta2 nACh receptor in HEK293 cells after 1 to […] by scintillation counting analysis; assay type: cell-based
Chain of Neuronal acetylcholine receptor; alpha4/beta2 (P17787 whole entry): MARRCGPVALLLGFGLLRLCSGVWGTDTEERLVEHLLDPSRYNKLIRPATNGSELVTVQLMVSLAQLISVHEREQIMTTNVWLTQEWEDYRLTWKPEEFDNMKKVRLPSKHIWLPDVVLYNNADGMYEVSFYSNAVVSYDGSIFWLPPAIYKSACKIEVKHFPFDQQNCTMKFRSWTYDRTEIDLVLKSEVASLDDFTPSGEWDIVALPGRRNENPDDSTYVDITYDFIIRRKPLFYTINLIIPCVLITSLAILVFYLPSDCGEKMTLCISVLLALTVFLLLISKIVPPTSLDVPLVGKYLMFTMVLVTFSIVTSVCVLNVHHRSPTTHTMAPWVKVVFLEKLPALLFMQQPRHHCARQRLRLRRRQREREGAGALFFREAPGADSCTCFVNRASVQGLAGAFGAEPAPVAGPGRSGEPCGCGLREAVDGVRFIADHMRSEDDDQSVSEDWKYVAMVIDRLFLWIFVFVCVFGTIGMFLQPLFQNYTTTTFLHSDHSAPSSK
Chain of Neuronal acetylcholine receptor; alpha4/beta2 (P43681 whole entry): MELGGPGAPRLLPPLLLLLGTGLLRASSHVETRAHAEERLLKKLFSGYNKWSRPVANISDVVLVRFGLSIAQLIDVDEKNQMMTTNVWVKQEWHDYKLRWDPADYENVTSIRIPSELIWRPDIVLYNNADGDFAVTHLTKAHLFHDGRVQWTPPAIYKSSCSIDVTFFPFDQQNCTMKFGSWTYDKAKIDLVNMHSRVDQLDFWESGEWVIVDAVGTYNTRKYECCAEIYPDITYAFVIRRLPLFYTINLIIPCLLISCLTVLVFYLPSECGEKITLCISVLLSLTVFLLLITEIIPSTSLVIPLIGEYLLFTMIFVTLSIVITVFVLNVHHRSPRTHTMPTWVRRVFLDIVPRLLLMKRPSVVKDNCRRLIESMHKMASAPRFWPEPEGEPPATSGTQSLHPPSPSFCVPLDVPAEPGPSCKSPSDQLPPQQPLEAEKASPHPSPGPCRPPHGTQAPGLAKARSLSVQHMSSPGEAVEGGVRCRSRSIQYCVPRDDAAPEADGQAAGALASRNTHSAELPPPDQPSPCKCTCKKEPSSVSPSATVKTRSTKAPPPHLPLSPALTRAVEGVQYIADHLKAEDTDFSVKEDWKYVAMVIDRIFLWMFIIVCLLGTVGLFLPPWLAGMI

[5] = target: 5-hydroxytryptamine receptor 3A (Homo sapiens, UniProt P46098); assay: Displacement of [3H]LY278584 from human recombinant 5-HT3 receptor expressed in HEK293T cells after 1 to […] by scintillation counting analysis; assay type: cell-based, HEK-293T
[6] = target: 5-hydroxytryptamine receptor 1D (Homo sapiens, UniProt P28221); assay: Displacement of [3H][…] from human recombinant 5-HT1D receptor expressed in HEK293T cells after 1 to […] by scintillation counting analysis; assay type: cell-based, HEK-293T
Chain of 5-hydroxytryptamine receptor 1D (P28221 whole entry): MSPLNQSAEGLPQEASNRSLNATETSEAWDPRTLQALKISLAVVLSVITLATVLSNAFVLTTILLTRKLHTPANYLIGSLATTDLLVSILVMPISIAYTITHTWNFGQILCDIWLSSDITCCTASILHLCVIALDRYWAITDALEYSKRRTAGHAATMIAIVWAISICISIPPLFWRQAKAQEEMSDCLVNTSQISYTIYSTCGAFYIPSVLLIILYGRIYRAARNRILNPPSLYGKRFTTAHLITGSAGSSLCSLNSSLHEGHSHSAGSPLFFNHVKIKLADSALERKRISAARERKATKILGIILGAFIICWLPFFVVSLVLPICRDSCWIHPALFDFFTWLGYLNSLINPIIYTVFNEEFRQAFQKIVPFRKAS

[7] = target: 5-hydroxytryptamine receptor 2C (Homo sapiens) (UniProt P28335); assay: Agonist activity at human 5-HT2C receptor expressed in HEK293 cells assessed as increase in calcium mobilization by FLIPR assay relative to 5-HT; assay type: functional, cell-based
Chain of 5-hydroxytryptamine receptor 2C (Homo sapiens) (P28335 whole entry): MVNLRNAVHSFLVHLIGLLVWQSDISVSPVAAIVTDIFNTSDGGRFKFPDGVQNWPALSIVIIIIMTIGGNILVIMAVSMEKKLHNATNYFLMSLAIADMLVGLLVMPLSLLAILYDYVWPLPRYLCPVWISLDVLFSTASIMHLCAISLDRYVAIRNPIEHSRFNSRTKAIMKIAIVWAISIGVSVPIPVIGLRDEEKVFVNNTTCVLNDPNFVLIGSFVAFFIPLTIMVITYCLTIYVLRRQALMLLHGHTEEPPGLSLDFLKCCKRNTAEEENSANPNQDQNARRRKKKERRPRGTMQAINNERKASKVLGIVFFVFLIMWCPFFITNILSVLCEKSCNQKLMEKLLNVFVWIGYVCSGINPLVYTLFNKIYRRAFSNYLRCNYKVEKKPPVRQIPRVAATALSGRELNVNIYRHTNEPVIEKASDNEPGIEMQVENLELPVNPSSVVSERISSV

Mu-type opioid receptor = Mu-type opioid receptor (Homo sapiens, UniProt P35372); assay: Displacement of [3H]DAMGO from human recombinant mu opioid receptor receptor expressed in HEK293 cells after 1 to […] by scintillation counting analysis; assay type: cell-based
Chain of Mu-type opioid receptor (P35372 whole entry): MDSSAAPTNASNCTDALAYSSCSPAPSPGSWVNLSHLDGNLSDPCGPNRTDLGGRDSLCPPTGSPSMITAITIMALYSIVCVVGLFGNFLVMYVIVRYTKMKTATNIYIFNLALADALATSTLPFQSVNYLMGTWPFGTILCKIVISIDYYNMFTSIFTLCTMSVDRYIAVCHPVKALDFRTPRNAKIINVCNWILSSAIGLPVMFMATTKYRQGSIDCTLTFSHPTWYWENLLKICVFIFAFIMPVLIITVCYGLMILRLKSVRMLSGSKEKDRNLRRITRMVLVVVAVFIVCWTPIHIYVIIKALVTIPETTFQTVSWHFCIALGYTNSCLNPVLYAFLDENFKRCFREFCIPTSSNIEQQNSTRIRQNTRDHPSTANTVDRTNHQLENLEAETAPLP

[8] = target: 5-hydroxytryptamine receptor 2A (Homo sapiens, UniProt P28223); assay: Agonist activity at human 5-HT2A receptor expressed in HEK293 cells assessed as increase in calcium mobilization by FLIPR assay relative to 5-HT; assay type: functional, cell-based
Histamine H4 receptor = Histamine H4 receptor (Homo sapiens, UniProt Q9H3N8); assay: Displacement of [3H]Histamine from human recombinant histamine H4 receptor expressed in HEK293 cells after 1 to […] by scintillation counting analysis; assay type: cell-based
D(1B) dopamine receptor = D(1B) dopamine receptor (Homo sapiens, UniProt P21918); assay: Displacement of […] from human recombinant dopamine D5 receptor expressed in HEK293 cells after 1 to […] by scintillation counting analysis; assay type: cell-based
Chain of D(1B) dopamine receptor (P21918 whole entry): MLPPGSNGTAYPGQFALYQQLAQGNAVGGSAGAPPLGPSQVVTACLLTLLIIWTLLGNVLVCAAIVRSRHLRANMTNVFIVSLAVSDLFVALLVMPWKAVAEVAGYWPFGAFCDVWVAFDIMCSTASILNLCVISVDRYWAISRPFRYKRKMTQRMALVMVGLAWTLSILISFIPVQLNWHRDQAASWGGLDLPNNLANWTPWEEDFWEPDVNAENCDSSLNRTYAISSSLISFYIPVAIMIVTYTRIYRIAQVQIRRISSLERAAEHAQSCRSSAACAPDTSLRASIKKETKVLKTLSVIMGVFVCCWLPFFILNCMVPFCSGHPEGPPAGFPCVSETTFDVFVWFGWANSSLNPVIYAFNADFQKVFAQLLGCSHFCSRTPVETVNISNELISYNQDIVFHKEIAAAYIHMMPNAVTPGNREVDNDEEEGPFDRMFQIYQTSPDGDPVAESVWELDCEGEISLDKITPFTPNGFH

Cannabinoid receptor 1 = Cannabinoid receptor 1 (Homo sapiens, UniProt P21554); assay: Displacement of [3H]CP55940 from human recombinant CB1 receptor expressed in HEK293 cells coexpressing FLP-IN after 1 to […] by scintillation counting analysis; assay type: cell-based
[9] = target: Sodium-dependent serotonin transporter (Homo sapiens, UniProt P31645); assay type: cell-based, HEK293
Chain of Sodium-dependent serotonin transporter (P31645 whole entry): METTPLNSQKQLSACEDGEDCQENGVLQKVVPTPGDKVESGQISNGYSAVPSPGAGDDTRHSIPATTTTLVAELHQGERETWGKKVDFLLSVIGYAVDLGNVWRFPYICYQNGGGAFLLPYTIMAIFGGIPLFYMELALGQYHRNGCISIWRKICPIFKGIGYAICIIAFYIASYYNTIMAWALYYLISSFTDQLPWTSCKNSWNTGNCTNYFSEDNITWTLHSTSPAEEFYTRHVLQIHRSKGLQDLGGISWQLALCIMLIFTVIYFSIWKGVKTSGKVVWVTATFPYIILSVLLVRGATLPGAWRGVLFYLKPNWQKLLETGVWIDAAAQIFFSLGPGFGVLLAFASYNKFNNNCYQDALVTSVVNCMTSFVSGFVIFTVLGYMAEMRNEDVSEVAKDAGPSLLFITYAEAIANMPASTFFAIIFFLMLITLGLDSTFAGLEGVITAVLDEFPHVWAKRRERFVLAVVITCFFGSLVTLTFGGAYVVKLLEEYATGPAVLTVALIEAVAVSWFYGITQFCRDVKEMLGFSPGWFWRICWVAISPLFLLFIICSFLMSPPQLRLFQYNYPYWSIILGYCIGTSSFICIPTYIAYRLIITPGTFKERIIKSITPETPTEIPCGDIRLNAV

Histamine H1 receptor = Histamine H1 receptor (Homo sapiens, UniProt P35367); assay: Displacement of [3H]Pyrilamine from human recombinant histamine H1 receptor expressed in HEK293 cells after 1 to […] by scintillation counting analysis; assay type: cell-based
Chain of Histamine H1 receptor (P35367 whole entry): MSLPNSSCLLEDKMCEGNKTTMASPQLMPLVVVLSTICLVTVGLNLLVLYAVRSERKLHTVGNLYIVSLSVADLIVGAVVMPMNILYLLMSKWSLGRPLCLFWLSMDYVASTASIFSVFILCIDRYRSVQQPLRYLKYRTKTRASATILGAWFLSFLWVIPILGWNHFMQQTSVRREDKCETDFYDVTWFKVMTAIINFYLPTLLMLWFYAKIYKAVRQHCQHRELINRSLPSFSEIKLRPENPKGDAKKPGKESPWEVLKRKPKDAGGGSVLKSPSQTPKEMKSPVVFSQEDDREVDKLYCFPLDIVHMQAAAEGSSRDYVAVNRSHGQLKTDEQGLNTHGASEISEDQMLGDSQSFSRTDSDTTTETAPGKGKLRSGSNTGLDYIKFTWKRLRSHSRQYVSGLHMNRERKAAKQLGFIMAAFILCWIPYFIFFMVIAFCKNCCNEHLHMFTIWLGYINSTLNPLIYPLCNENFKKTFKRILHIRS

[10] = target: Nicotinic acetylcholine receptor alpha2/beta2 (Homo sapiens, UniProt P02708+P17787); assay: Displacement of [3H]Epibatidine from human recombinant alpha2beta2 nACh receptor expressed in HEK293 cells after 1 to […] by scintillation counting analysis; assay type: cell-based
[11] = target: Beta-1 adrenergic receptor (Homo sapiens, UniProt P08588); assay: Displacement of [125I]Iodopindolol from human recombinant adrenergic beta1 receptor expressed in CHO cells coexpressing FLP-IN after 1 to […] by scintillation counting analysis; assay type: cell-based
Chain of Beta-1 adrenergic receptor (P08588 whole entry): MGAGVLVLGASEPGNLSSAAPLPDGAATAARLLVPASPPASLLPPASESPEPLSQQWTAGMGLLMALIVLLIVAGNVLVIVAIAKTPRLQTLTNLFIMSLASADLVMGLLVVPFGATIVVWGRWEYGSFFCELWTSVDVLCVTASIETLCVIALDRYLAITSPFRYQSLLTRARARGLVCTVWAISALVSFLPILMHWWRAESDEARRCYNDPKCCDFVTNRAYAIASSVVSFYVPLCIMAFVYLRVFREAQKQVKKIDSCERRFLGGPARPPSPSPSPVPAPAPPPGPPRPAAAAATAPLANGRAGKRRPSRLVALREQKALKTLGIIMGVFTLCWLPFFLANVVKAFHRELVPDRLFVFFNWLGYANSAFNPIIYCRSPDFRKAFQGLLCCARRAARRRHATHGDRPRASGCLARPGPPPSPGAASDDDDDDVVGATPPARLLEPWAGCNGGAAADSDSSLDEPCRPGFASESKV

[12] = target: 5-hydroxytryptamine receptor 6 (Homo sapiens, UniProt P50406); assay: Displacement of [3H]LSD from human recombinant 5-HT6 receptor expressed in HEK293 cells after 1 to […] by scintillation counting analysis; assay type: cell-based
[13] = target: Neuronal acetylcholine receptor; alpha4/beta4 (Homo sapiens, UniProt P30926+P43681); assay: Displacement of [3H]Epibatidine from human recombinant alpha4beta4 nACh receptor expressed in HEK293 cells after 1 to […] by scintillation counting analysis; assay type: cell-based
[14] = target: Beta-3 adrenergic receptor (Homo sapiens, UniProt P13945); assay: Displacement of [125I]Iodopindolol from human recombinant adrenergic beta3 receptor expressed in HEK293 cells coexpressing FLP-IN after 1 to […] by scintillation counting analysis; assay type: cell-based
[15] = target: Muscarinic acetylcholine receptor M1 (Homo sapiens, UniProt P11229); assay: Displacement of [3H]QNB from human recombinant muscarinic M1 receptor expressed in CHO cells after 1 to […] by scintillation counting analysis; assay type: cell-based
[16] = target: Neuronal acetylcholine receptor; alpha3/beta4 (Homo sapiens, UniProt P30926+P32297); assay: Displacement of [3H]Epibatidine from human recombinant alpha3beta4 nACh receptor expressed in HEK293 cells after 1 to […] by scintillation counting analysis; assay type: cell-based
Histamine H2 receptor = Histamine H2 receptor (Homo sapiens, UniProt P25021); assay: Displacement of [3H]Tiotidine from human recombinant histamine H2 receptor expressed in HEK293 cells after 1 to […] by scintillation counting analysis; assay type: cell-based
D(1A) dopamine receptor = D(1A) dopamine receptor (Homo sapiens, UniProt P21728); assay: Displacement of […] from human recombinant dopamine D1 receptor expressed in HEK293 cells after 1 to […] by scintillation counting analysis; assay type: cell-based
[17] = target: Sodium-dependent dopamine transporter (Homo sapiens, UniProt Q01959); assay: Displacement of [3H]WIN35428 from human recombinant dopamine transporter expressed in HEK293 cells after 1 to […] by scintillation counting analysis; assay type: cell-based
Translocator protein = Translocator protein (Rattus norvegicus, UniProt P16257); assay: Displacement of [3H]PK11195 from peripheral benzodiazepine receptor in rat brain after 1 to […] by scintillation counting analysis; assay type: tissue-based
[18] = target: Muscarinic acetylcholine receptor M3 (Homo sapiens, UniProt P20309); assay: Displacement of [3H]QNB from human recombinant muscarinic M3 receptor expressed in CHO cells after 1 to […] by scintillation counting analysis; assay type: cell-based

For `CC(N)Cc1c[nH]c2ccccc12` (stereo not given), the EC50 [1] was 0.0758 µM, the Ki [2] was > 10 µM and the Ki [3] was 0.103 µM. For the same compound, the Ki [4] was > 10 µM, the Ki [5] was > 10 µM and the Ki [6] was 1.79 µM. For the same compound, the Emax [7] was 95%, the Ki (Mu-type opioid receptor) was > 10 µM and the Emax [8] was 89%. For the same compound, the Ki (Histamine H4 receptor) was > 10 µM, the Ki (D(1B) dopamine receptor) was > 10 µM and the Ki (Cannabinoid receptor 1) was > 10 µM. For the same compound, the IC50 [9] was 2.34 µM, the Ki [9] was 0.812 µM and the Ki (Histamine H1 receptor; read-out: pKi (converted)) was > 10 µM. For the same compound, the Ki [10] was > 10 µM, the Ki ([11]; read-out: Ki) was 3.78 µM and the Ki [12] was 0.909 µM. The Ki [13] was > 10 µM, the Ki [14] was > 10 µM and the Ki [15] was > 10 µM. The Ki [16] was > 10 µM, the Ki (Histamine H2 receptor; read-out: pKi (converted)) was > 10 µM and the Ki (D(1A) dopamine receptor) was > 10 µM. The Ki [17] was > 10 µM, the Ki (Translocator protein) was > 10 µM and the Ki [18] was > 10 µM.

`C=CCN(CC=C)CCc1c[nH]c2ccc(OC)cc12` was tested, and the EC50 [1] was 0.0055 µM, the Ki [2] was > 10 µM and the Ki [3] was 0.017 µM. For the same compound, the Ki [4] was > 10 µM, the Ki [5] was > 10 µM and the Ki [6] was 0.149 µM. The Emax [7] was 101%, the Ki (Mu-type opioid receptor) was > 10 µM and the Emax [8] was 93%. The Ki (Histamine H4 receptor) was > 10 µM, the Ki (D(1B) dopamine receptor) was > 10 µM and the Ki (Cannabinoid receptor 1) was > 10 µM. It also gave an IC50 [9] of 8.71 µM, a Ki [9] of 2.47 µM and a Ki (Histamine H1 receptor; read-out: Ki) of 0.936 µM. For the same compound, the Ki (Histamine H1 receptor; read-out: pKi (converted)) was 1.26 µM, the Ki [10] was > 10 µM and the Ki ([11]; read-out: pKi (converted)) was > 10 µM. For the same compound, the Ki [12] was 0.084 µM, the Ki [13] was > 10 µM and the Ki [14] was > 10 µM. For the same compound, the Ki [15] was > 10 µM, the Ki [16] was > 10 µM and the Ki (Histamine H2 receptor; read-out: Ki) was 4.25 µM. For the same compound, the Ki (D(1A) dopamine receptor) was > 10 µM, the Ki [17] was > 10 µM and the Ki (Translocator protein) was > 10 µM. For the same compound, the Ki [18] was > 10 µM.
